For experiment [1], the system named is Mus musculus. Put plainly: Effect on body temperature in mice at intraperitoneal dosage of 2 mg/kg, (compound administered 30 min before the test) after 30 min. It is filed as functional.
Experiment [2] concerns Mus musculus. Nature of the experiment: Effect on 8-OH-DPAT-induced hypothermia in mice (5 mg/kg) at intraperitoneal dosage of 4 mg/kg of compound after 45 mins. It counts as functional.
The subject of experiment [3] is Mus musculus. Put plainly: Effect on body temperature in mice at intraperitoneal dosage of 1 mg/kg, (compound administered 30 min before the test) after 30 min. It counts as functional.
In experiment [4] the test system is Mus musculus. Put plainly: Effect on body temperature in mice at intraperitoneal dosage of 1 mg/kg, (compound administered 30 min before the test) after 60 min. It counts as functional.
In experiment [5] the test system is Mus musculus. Nature of the experiment: Effect on 8-OH-DPAT-induced hypothermia in mice (5 mg/kg) at intraperitoneal dosage of 1 mg/kg of compound after 30 mins. It is filed as functional.
The test system of experiment [6] is Mus musculus. Put plainly: Effect on body temperature in mice at intraperitoneal dosage of 8 mg/kg, (compound administered 30 min before the test) after 90 min. It counts as functional.
The subject of experiment [7] is Mus musculus. Put plainly: Effect on 8-OH-DPAT-induced hypothermia in mice (5 mg/kg) at intraperitoneal dosage of 2 mg/kg of compound after 15 mins. It is filed as functional.
Experiment [8] has as its system Mus musculus. Nature of the experiment: Effect on 8-OH-DPAT-induced hypothermia in mice (5 mg/kg) at intraperitoneal dosage of 4 mg/kg of compound after 15 mins. It is filed as functional.
In experiment [9] the test system is Mus musculus. Nature of the experiment: Effect on body temperature in mice at intraperitoneal dosage of 4 mg/kg, (compound administered 30 min before the test) after 30 min. It is filed as functional.
Experiment [10] relates to Mus musculus. Put plainly: Effect on body temperature in mice at intraperitoneal dosage of 8 mg/kg, (compound administered 30 min before the test) after 45 min. It counts as functional.
Experiment [11] deals with Rattus norvegicus. Nature of the experiment: Tested for the effect on 8-OH-DPAT-induced behavior in reserpine pretreated rat against flat body posture at dosage of 16 mg/kg. It is filed as functional.
The test system of experiment [12] is Rattus norvegicus. Put plainly: Tested for the effect on 8-OH-DPAT-induced behavior in reserpine pretreated rat against forepaw treading at dosage of 16 mg/kg. It counts as functional.
Experiment [13] concerns Rattus norvegicus. Put plainly: Tested for the effect on 8-OH-DPAT-induced lower lip retraction (LLR) in rat at dosage of 16 mg/kg. It counts as functional.
Experiment [14] has as its system Rattus norvegicus. Nature of the experiment: Tested for the effect on 8-OH-DPAT-induced lower lip retraction (LLR) in rat at dosage of 4 mg/kg. It is filed as functional.
Experiment [15] concerns Rattus norvegicus. Nature of the experiment: Tested for the effect on 8-OH-DPAT-induced lower lip retraction (LLR) in rat at dosage of 8 mg/kg. It is filed as functional.
Experiment [16] deals with Rattus norvegicus. Put plainly: Tested for the induction of lower lip retraction (LLR) by the investigated compounds in rat at dosage of 4 mg/kg. It is filed as functional.
The species entered for experiment [17] is Rattus norvegicus. Nature of the experiment: Selectivity is the ratio between Ki values of 5-HT2 and 5-HT1A.

Consider one compound from ChEMBL document CHEMBL1127439, “Structure-activity relationship studies of central nervous system agents. 13. 4-[3-(Benzotriazol-1-yl)propyl]-1-(2-methoxyphenyl)piperazine, a new putative 5-HT1A receptor antagonist, and its analogs” (J Med Chem, 1994).

Take `COc1ccccc1N1CCN(CCCn2nnc3ccccc32)CC1`: the Delta t was found to be 0.3 °C in [1]; 0 °C in [2]; 0 °C in experiment [3]; 0.1 °C in [4]; 1.1 °C in experiment [5]; 0.2 °C in experiment [6]. The Delta t was 0.4 °C in experiment [7], 0.3 °C in experiment [8], 0.4 °C in experiment [9] and 0.2 °C in experiment [10]. The Behavioral score in experiment [11] worked out at 6.1; in [12] it was 2.6. The LLR score in experiment [13] is on record as 0.9; in experiment [14], 1.1; in experiment [15] it was 0.7; in experiment [16] it was 0. Besides, the Selectivity in [17] was 69.
